Source: the kinase profiling compilation of Christmann-Franck et al. (2016)

Legend:
Test in all cases: KINOMEscan competition binding
Settings in all cases: compound 10.0 µM
ITK (human) = ITK (human) (UniProt Q08881)
STK4 (human) = STK4 (human) (UniProt Q13043)
CSNK1G1 (human) = CSNK1G1 (human) (UniProt Q9HCP0)
MAP4K4 (human) = MAP4K4 (human) (UniProt O95819)
DMPK (human) = DMPK (human) (UniProt Q09013)
CAMKK2 (human) = CAMKK2 (human) (UniProt Q96RR4)
PIP4K2B (human) = PIP4K2B (human) (UniProt P78356)
CAMK2G (human) = CAMK2G (human) (UniProt Q13555)
CDC42BPG (human) = CDC42BPG (human) (UniProt Q6DT37)
NTRK2 (human) = NTRK2 (human) (UniProt Q16620)
TAOK1 (human) = TAOK1 (human) (UniProt Q7L7X3)
CDK17 (human) = CDK17 (human) (UniProt Q00537)
PTK6 (human) = PTK6 (human) (UniProt Q13882)
NEK7 (human) = NEK7 (human) (UniProt Q8TDX7)
EPHA5 (human) = EPHA5 (human) (UniProt P54756)
DAPK1 (human) = DAPK1 (human) (UniProt P53355)
RIOK2 (human) = RIOK2 (human) (UniProt Q9BVS4)
PAK3 (human) = PAK3 (human) (UniProt O75914)
PIK3CA (human) = PIK3CA (human) (UniProt P42336)
MELK (human) = MELK (human) (UniProt Q14680)
MAP3K10 (human) = MAP3K10 (human) (UniProt Q02779)
RPS6KA5 KD1 (human) = RPS6KA5 KD1 (human) (UniProt O75582)
LATS1 (human) = LATS1 (human) (UniProt O95835)
PLK3 (human) = PLK3 (human) (UniProt Q9H4B4)
PRKCQ (human) = PRKCQ (human) (UniProt Q04759)
PIK3C2B (human) = PIK3C2B (human) (UniProt O00750)
BRSK2 (human) = BRSK2 (human) (UniProt Q8IWQ3)
KDR (human) = KDR (human) (UniProt P35968)
RPS6KA4 KD1 (human) = RPS6KA4 KD1 (human) (UniProt O75676)
NEK9 (human) = NEK9 (human) (UniProt Q8TD19)
RPS6KA2 KD1 (human) = RPS6KA2 KD1 (human) (UniProt Q15349)
NEK2 (human) = NEK2 (human) (UniProt P51955)
ANKK1 (human) = ANKK1 (human) (UniProt Q8NFD2)
RPS6KA3 KD1 (human) = RPS6KA3 KD1 (human) (UniProt P51812)
AKT2 (human) = AKT2 (human) (UniProt P31751)

MAP4K4 (human), sequence (O95819 whole entry, looked up): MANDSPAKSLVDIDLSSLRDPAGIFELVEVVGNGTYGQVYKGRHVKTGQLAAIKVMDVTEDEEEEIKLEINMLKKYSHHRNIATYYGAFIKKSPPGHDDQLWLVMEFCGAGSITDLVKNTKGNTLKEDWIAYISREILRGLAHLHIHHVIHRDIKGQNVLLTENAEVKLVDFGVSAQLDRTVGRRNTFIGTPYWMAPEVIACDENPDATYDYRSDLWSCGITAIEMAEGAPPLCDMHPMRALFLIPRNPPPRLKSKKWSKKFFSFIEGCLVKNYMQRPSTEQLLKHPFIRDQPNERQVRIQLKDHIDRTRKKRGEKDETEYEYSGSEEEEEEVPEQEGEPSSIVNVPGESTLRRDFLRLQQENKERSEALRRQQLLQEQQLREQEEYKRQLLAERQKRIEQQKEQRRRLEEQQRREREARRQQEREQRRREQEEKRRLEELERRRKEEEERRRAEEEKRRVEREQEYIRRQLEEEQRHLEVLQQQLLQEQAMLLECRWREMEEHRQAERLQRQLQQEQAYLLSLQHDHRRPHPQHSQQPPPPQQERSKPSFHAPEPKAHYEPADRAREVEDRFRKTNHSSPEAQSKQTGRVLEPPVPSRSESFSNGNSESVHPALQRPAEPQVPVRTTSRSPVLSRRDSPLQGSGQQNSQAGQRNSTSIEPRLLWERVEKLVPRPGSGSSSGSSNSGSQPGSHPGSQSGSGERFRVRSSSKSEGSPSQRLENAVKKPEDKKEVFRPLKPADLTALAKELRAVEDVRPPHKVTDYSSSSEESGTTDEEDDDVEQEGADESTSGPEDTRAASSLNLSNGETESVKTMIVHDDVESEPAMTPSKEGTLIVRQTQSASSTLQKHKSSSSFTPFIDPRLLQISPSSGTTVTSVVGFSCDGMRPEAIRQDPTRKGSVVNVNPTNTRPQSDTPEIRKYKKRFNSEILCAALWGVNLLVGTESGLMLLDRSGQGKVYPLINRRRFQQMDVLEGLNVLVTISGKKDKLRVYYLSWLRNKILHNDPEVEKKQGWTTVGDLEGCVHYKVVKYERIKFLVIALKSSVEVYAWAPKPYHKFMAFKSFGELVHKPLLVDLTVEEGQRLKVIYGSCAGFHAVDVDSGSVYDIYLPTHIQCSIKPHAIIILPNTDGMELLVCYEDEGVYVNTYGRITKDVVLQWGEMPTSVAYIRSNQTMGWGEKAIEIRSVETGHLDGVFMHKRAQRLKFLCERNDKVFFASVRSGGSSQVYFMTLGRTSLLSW
PAK3 (human), sequence (O75914 whole entry, looked up): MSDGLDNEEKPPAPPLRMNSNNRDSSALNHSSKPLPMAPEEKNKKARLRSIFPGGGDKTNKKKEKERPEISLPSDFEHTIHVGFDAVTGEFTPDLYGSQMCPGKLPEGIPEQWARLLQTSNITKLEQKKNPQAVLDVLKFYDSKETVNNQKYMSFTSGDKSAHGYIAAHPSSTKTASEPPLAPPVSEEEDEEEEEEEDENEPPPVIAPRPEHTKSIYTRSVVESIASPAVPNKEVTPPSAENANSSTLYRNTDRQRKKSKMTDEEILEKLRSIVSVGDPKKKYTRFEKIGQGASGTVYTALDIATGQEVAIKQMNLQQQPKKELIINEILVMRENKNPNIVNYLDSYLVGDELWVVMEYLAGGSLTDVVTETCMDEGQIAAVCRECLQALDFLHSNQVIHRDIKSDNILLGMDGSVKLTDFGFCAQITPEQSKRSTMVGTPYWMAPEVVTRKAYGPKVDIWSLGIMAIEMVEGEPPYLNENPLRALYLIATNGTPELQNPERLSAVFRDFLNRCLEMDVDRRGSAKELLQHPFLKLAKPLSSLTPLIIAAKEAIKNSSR
BRSK2 (human), sequence (Q8IWQ3 whole entry, looked up): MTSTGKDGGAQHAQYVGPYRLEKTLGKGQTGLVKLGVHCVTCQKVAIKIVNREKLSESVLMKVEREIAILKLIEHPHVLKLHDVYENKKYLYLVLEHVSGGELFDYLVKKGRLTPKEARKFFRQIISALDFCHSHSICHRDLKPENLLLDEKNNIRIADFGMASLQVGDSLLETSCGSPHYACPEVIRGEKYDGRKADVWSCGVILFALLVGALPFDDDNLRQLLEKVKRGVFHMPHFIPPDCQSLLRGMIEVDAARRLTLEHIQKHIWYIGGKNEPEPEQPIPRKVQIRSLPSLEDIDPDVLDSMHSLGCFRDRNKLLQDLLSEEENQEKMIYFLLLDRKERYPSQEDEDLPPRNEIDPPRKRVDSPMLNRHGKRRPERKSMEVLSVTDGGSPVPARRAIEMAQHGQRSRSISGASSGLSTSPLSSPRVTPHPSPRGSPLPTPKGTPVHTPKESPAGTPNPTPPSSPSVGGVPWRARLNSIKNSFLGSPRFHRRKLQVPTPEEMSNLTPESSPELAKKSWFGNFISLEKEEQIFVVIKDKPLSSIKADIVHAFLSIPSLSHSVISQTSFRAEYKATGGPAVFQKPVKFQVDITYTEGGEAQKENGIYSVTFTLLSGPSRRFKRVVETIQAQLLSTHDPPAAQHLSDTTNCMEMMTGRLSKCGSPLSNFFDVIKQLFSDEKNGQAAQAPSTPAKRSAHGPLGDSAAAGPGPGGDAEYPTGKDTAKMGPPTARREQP
CDK17 (human), sequence (Q00537 whole entry, looked up): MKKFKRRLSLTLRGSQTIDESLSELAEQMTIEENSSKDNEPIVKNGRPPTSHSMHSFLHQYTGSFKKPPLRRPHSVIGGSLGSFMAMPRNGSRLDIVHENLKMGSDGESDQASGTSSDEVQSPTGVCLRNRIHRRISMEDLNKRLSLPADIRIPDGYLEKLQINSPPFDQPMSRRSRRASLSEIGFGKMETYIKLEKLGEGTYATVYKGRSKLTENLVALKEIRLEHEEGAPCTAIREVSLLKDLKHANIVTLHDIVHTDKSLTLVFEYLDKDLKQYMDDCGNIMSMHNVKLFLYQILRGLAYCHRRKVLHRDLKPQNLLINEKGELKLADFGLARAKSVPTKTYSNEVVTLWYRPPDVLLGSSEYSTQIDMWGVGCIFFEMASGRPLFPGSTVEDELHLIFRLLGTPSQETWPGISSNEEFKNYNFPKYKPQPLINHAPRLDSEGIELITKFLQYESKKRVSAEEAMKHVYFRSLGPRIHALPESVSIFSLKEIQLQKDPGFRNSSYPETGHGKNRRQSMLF
RPS6KA4 KD1 (human), sequence (O75676 whole entry, looked up): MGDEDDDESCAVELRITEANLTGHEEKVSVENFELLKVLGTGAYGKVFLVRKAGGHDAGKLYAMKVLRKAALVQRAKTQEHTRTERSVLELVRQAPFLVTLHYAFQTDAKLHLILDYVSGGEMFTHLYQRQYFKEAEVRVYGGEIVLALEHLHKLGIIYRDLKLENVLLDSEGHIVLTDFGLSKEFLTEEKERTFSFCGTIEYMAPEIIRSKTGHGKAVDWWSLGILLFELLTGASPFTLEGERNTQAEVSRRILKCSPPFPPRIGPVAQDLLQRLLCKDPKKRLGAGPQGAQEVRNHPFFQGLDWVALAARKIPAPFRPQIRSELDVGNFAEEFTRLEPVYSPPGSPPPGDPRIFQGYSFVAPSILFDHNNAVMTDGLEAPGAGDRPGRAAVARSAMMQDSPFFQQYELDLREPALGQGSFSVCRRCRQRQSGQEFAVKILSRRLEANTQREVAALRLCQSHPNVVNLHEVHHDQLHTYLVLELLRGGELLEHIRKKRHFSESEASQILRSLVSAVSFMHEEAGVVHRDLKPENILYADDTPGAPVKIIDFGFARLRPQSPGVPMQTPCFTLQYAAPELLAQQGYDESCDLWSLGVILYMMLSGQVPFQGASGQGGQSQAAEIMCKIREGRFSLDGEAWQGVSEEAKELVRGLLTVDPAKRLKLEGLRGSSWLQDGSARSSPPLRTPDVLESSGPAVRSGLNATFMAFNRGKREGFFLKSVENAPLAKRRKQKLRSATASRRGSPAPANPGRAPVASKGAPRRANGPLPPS
ITK (human), sequence (Q08881 whole entry, looked up): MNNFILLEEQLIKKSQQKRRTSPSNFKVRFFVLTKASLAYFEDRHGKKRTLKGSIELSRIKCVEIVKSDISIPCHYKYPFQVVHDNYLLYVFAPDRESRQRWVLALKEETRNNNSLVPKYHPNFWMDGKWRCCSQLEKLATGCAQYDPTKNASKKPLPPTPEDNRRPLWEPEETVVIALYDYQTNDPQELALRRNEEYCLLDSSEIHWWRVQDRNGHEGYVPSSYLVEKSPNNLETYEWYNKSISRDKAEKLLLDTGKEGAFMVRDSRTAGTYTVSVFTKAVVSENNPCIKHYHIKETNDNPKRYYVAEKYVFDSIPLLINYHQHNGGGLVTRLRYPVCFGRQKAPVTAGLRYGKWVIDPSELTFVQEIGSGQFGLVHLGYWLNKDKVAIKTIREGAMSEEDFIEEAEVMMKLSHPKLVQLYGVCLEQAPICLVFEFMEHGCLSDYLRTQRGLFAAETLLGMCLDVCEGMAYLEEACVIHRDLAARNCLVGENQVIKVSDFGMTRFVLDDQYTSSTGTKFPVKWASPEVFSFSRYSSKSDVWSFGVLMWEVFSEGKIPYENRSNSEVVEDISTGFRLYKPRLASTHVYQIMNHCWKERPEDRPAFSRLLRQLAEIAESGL
PTK6 (human), sequence (Q13882 whole entry, looked up): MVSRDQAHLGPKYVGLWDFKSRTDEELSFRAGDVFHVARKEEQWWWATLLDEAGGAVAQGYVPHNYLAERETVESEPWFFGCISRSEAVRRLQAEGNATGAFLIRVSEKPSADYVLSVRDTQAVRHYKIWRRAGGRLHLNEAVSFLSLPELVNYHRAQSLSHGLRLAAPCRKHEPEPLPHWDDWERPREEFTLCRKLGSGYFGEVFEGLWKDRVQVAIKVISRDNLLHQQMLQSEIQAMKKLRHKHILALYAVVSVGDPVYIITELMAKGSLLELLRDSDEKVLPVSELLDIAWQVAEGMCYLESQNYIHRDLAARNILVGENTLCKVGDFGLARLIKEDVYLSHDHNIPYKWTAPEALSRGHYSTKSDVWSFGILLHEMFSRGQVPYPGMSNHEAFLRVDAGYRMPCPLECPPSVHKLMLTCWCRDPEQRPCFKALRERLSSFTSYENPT

SMILES	kinase still bound, per cent of control (ITK (human))	kinase still bound, per cent of control (STK4 (human))	kinase still bound, per cent of control (CSNK1G1 (human))	kinase still bound, per cent of control (MAP4K4 (human))	kinase still bound, per cent of control (DMPK (human))	kinase still bound, per cent of control (CAMKK2 (human))	kinase still bound, per cent of control (PIP4K2B (human))	kinase still bound, per cent of control (CAMK2G (human))	kinase still bound, per cent of control (CDC42BPG (human))	kinase still bound, per cent of control (NTRK2 (human))	kinase still bound, per cent of control (CDK17 (human))	kinase still bound, per cent of control (PTK6 (human))	kinase still bound, per cent of control (NEK7 (human))	kinase still bound, per cent of control (EPHA5 (human))	kinase still bound, per cent of control (DAPK1 (human))	kinase still bound, per cent of control (PAK3 (human))	kinase still bound, per cent of control (PIK3CA (human))	kinase still bound, per cent of control (MELK (human))	kinase still bound, per cent of control (MAP3K10 (human))	kinase still bound, per cent of control (RPS6KA5 KD1 (human))	other results
Cc1n[nH]c2ccc(-c3cncc(OC[C@@H](N)Cc4c[nH]c5ccccc45)c3)cc12	100%	100%	3.7%	2.2%	0.8%	2%	5.4%	5.4%	0.8%	100%	25%	100%	100%	100%	2.2%	100%	100%	12%	100%	11%	kinase still bound, per cent of control (TAOK1 (human)): 0.05%; kinase still bound, per cent of control (RIOK2 (human)): 6.2%; kinase still bound, per cent of control (LATS1 (human)): 3.8%; kinase still bound, per cent of control (PLK3 (human)): 100%; kinase still bound, per cent of control (PRKCQ (human)): 0%; kinase still bound, per cent of control (PIK3C2B (human)): 100%; kinase still bound, per cent of control (BRSK2 (human)): 100%; kinase still bound, per cent of control (KDR (human)): 100%; kinase still bound, per cent of control (RPS6KA4 KD1 (human)): 100%; kinase still bound, per cent of control (NEK9 (human)): 100%; kinase still bound, per cent of control (RPS6KA2 KD1 (human)): 29%; kinase still bound, per cent of control (NEK2 (human)): 100%; kinase still bound, per cent of control (ANKK1 (human)): 100%
CNC(=O)c1ccc(Nc2cc(Nc3ccccc3S(=O)(=O)C(C)C)c3cc[nH]c3n2)nc1	0.15%	4.2%	16%	31%	10%	100%	3.8%	100%	100%	0%	100%	25%	100%	100%	100%	1%	100%	100%	18%	100%	kinase still bound, per cent of control (TAOK1 (human)): 0.65%; kinase still bound, per cent of control (RPS6KA3 KD1 (human)): 25%; kinase still bound, per cent of control (RIOK2 (human)): 13%; kinase still bound, per cent of control (LATS1 (human)): 100%; kinase still bound, per cent of control (AKT2 (human)): 100%; kinase still bound, per cent of control (PLK3 (human)): 100%; kinase still bound, per cent of control (PRKCQ (human)): 24%; kinase still bound, per cent of control (PIK3C2B (human)): 100%; kinase still bound, per cent of control (BRSK2 (human)): 100%; kinase still bound, per cent of control (KDR (human)): 100%; kinase still bound, per cent of control (RPS6KA4 KD1 (human)): 2.2%; kinase still bound, per cent of control (NEK9 (human)): 100%; kinase still bound, per cent of control (RPS6KA2 KD1 (human)): 1.8%; kinase still bound, per cent of control (NEK2 (human)): 100%; kinase still bound, per cent of control (ANKK1 (human)): 100%
CCN(CC)CCCCNc1ncc2cc(-c3cc(OC)cc(OC)c3)c(NC(=O)NC(C)(C)C)nc2n1	100%	100%	100%	100%	100%	100%	100%	100%	100%	100%	100%	100%	100%	100%	100%	100%	20%	100%	100%	100%	kinase still bound, per cent of control (RPS6KA3 KD1 (human)): 100%; kinase still bound, per cent of control (LATS1 (human)): 100%; kinase still bound, per cent of control (AKT2 (human)): 100%; kinase still bound, per cent of control (PLK3 (human)): 100%; kinase still bound, per cent of control (PRKCQ (human)): 100%; kinase still bound, per cent of control (BRSK2 (human)): 100%; kinase still bound, per cent of control (KDR (human)): 21%; kinase still bound, per cent of control (RPS6KA4 KD1 (human)): 100%; kinase still bound, per cent of control (NEK9 (human)): 100%; kinase still bound, per cent of control (RPS6KA2 KD1 (human)): 100%; kinase still bound, per cent of control (NEK2 (human)): 100%; kinase still bound, per cent of control (ANKK1 (human)): 100%
